Test results as given in the METLIN SMRT retention time set (Domingo-Almenara et al. 2019).

Test: gradient 5% acetonitrile 3 min, to 50% in 2 min, to 85% in 15 min, held 3 min, 100 µL/min
Conditions: column: Zorbax Extend-C18 2.1 x 50 mm; eluents: water / acetonitrile, 0.1% formic acid
In short: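 Using water and acetonitrile that each contained 0.1% formic acid, mixtures of ~100 pure standards were separated at 100 μL/min on a Zorbax Extend-C18 column (2.1 × 50 mm, 1.8 μm). The HPLC fed a quadrupole time-of-flight mass spectrometer working in positive and negative ionization mode, with dead and dwell volumes of 40 μL and 900 μL. Data were acquired over 3 months. Retention time was read from computationally picked adduct peaks after manual inspection of each.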

RP-LC retention time [s]	Structure (SMILES)
614	Cc1ccc(-c2nc3nc(C)cc(N(CCO)CCO)n3n2)cc1
804	COc1ccc(-c2c(C)noc2NC(C)=O)cc1S(=O)(=O)Nc1ccc(C)cc1C
1030	Cc1ccc2c(c1)N(S(C)(=O)=O)CCC(C(=O)Nc1ccccc1Cl)O2 (centres undefined)
800	COc1ccc(-c2nc(-c3ccc4nncn4c3)no2)c(OC)c1
779	CCn1ccc(NC(=O)NC2CCCCC2)n1
584	COc1ccccc1-c1nc(Cn2ccnc2C)no1
848	O=C(Nc1cnn(-c2ncc(N3CCSCC3)cn2)c1)NC1CCCC1
742	CCc1cccc(Nc2nc3ccncc3n(Cc3ccccc3)c2=O)c1
638	CC(C)CC[C@@H](O)[C@](C)(O)C1CC[C@@]2(O)C3=CC(=O)[C@]4(O)C[C@@H](O)[C@@H](O)C[C@]4(C)C3[C@H](O)C[C@]12C (some centres undefined)
569	COc1ccc(-c2ncccc2CNC(=O)C2CC2)cc1
896	CCOC(=O)c1ccc(Nc2nc(C(=O)OCC)nc3ccccc23)cc1
763	COCCn1c(C2CCN(S(=O)(=O)c3ccc(F)cc3)C2)nc2cccnc21 (centres undefined)
837	CCOC(=O)c1c(C)[nH]c(C)c1S(=O)(=O)N1CCC(C(=O)N2CCc3ccccc3C2)CC1
567	COc1ccc(Br)c(C(=O)NCC#CCN(C(C)C)C(C)C)c1
1170	COc1cccc(-c2nc(C3CCN(S(=O)(=O)c4ccc(C)c(F)c4)CC3)no2)c1
592	Cc1ccnc(NC(=O)C2CC(=O)N(c3n[nH]c4ccccc34)C2)c1 (centres undefined)
944	CC1=NS(=O)(=O)N(C)C=C1C(=O)OCc1nc(-c2ccccc2)no1
849	CC(=O)Nc1c(-c2ccccn2)nsc1C(=O)N1CCC(C)CC1
840	Cc1ccc(F)cc1NS(=O)(=O)c1cc2n(c1)CCN(CC(C)C)C2=O
886	CCOC(=O)c1c(S(=O)(=O)N2CCC(C(=O)Nc3ccc(C)cc3)CC2)c(C)n(C)c1C
969	COc1ccc(-c2nnc(-c3ccccc3Cl)o2)cc1S(=O)(=O)N1CCCC1
752	Cc1noc(C)c1S(=O)(=O)N1CCCN(S(=O)(=O)c2ccccc2)CCC(=O)NCC1
1120	CCn1c(C(=O)NCc2ccc3c(c2)OCO3)cc2c(-c3cccs3)nn(-c3ccccc3)c21

RP-LC retention time [s]	Structure (SMILES)
1140	O=C(NCc1ccc(F)cc1)c1c(O)c2cccnc2n(-c2cccc(F)c2)c1=O
724	CCCCC#Cc1nc(NC)c2ncn([C@@H]3O[C@H](CO)C(O)[C@@H]3O)c2n1 (some centres undefined)
798	O=C(Cn1cc(-c2ccccc2)c2ncnc(N3CCCCC3)c21)Nc1ccccc1
887	O=C(NCCC1=CCCCC1)c1c(OCC2CC2)cc(=O)n2c1CCCCC2
576	CC(=O)N1CCc2ccccc2C1C(=O)N1CCN(c2ccc(F)cc2)CC1 (centres undefined)
783	O=C(NC1CCCCC1)c1ccc(CN2CCN(Cc3ccc(F)cc3)C(=O)C2=O)cc1
524	CN(C)C[C@@H]1CN(C2CCOCC2)C[C@H]1NS(=O)(=O)c1ccc(C#N)cc1
621	O=C(NCC1(CO)CC1)NC1CCCCC1
616	O=C(Nc1ccc2nc(N3CCCN(c4ncccn4)CC3)cc(C(=O)O)c2c1)c1ccc(F)cc1
710	O=C(Nc1ccc(C2(C(=O)O)CCC2)cc1)C1CC1
912	CN(C)S(=O)(=O)c1ccc(-c2nnc(C(=O)NCc3ccc(Br)cc3)o2)cc1
595	O=C(C1CCC1)N1CCCCCC1CN1CCOCC1 (centres undefined)
725	COc1ccc(-c2noc(C3CCCN3C(=O)c3cccnc3)n2)cc1 (centres undefined)
564	CN1CCN(C(CNC(=O)Cc2cccc3ccccc23)c2ccsc2)CC1 (centres undefined)
1020	COc1ccc(C2=Nc3ccccc3N(CC(=O)Nc3cc(OC)ccc3OC)C(=O)C2)cc1
889	CCN1C(=O)C(C)(C)COc2ccc(NC(=O)Cc3ccc(F)cc3)cc21
758	COc1ccc(C(C)(C)C)cc1S(=O)(=O)Nc1ccc(-c2cn3ccc(C)nc3n2)cc1
779	CC1=C(c2ccc(C(C)C)cc2)S(=O)(=O)N=C1N1CCC(C(=O)N2CCOCC2)CC1
688	COc1ccc(NC(=O)CCS(=O)(=O)Cc2ccccc2)c2ccccc12
718	c1cc(-c2nc(-c3ccnc(N4CCOCC4)c3)no2)ccn1
708	COC(=O)c1ncn2c1C(=O)N(c1ccc(F)cc1C)C(C)(C(=O)NCc1ccccc1)C2 (centres undefined)
678	Cc1noc(-c2ccc(-n3cnc(C(=O)NCCc4ccccc4)c3)nc2)n1
623	Cc1ccc(-c2ccc(N3CCN(c4ccccn4)CC3)nn2)cc1S(=O)(=O)N1CCOCC1

RP-LC retention time [s]	Structure (SMILES)
1190	CC(NC(=O)c1c(O)c2cccnc2n(-c2ccccc2)c1=O)c1ccccc1 (centres undefined)
1130	COC(=O)c1ccccc1NC(=O)C1CCCN(c2ncnc3onc(-c4ccc(F)cc4)c23)C1 (centres undefined)
749	N#Cc1cccc(C(=O)N2CCN(c3cc(-c4ccccc4)[nH]n3)CC2)c1
709	COc1cc2c(Oc3ccc4[nH]c(C)cc4c3F)ncnc2cc1OCCCN1CCCC1
578	CCn1nc(C(=O)NCCn2nc(C)cc2C)ccc1=O
631	CN1C(=O)Cc2cc(NC(=O)c3cccs3)ccc21
811	CCOc1ccc(C(Nc2ccccn2)c2ccc3ccc(C)nc3c2O)cc1C (centres undefined)
819	O=C(c1cn(-c2ccc(-c3nc(C4CC4)no3)cn2)cn1)N1CCSCC1
1060	CCc1sc(NC(=O)C2CC(=O)N(CCc3c[nH]c4ccc(Cl)cc34)C2)nc1-c1ccccc1 (centres undefined)
902	Cc1c(Cl)cccc1NC(=O)NCCc1cn(CC(C)C)c2ncccc12
769	CSc1cccc(NC(=O)Cn2c(-c3cnccn3)nc(C)c(C)c2=O)c1
610	COc1ncccc1CNC(=O)Cc1ccsc1
604	CCCC(=O)Nc1ccc2c(c1)N(C(=O)c1ccco1)CCC2
559	Cc1ncoc1C(=O)N1CC(c2noc(C3CCCN3CC3CC3)n2)C1 (centres undefined)
708	O=C(Nc1ccc2c(c1)CN(C(=O)c1cccs1)CC2)c1cnccn1
924	CC(C)c1cc(C(F)(F)F)nc(NNc2nc(C(C)C)cc(C(F)(F)F)n2)n1
557	OC[C@@H]1CN(Cc2ccco2)C[C@H]1c1nc(-c2cccnc2)no1
763	CCN1C(=O)c2cccnc2Sc2cc(CNC(=O)c3ccc(OC)c(F)c3)ccc21
855	COC(=O)c1ccccc1NC(=O)NCc1ccccc1
1240	CC1CCN(c2ncc(S(=O)(=O)c3ccc(C(C)C)cc3)c(N)n2)CC1
1060	COc1cccc(NC(=O)c2sc(-c3cn(C(C)C)c4ncccc34)nc2C)c1
705	CCn1cc(-c2ccncc2)cc1C(=O)NCc1cc(C)ccc1C
998	C=CCn1c(=O)c2ccccc2n(Cc2nc(-c3ccc4c(c3)OCO4)no2)c1=O

RP-LC retention time [s]	Structure (SMILES)
687	COc1cccc(NC(=O)N2CCN(c3cc(C)nc(Nc4ccc(C)cc4)n3)CC2)c1
755	CCc1cccc(NC(=O)Cn2cnc3nc(N4CCCC(C(=O)NC(C)C)C4)sc3c2=O)c1 (centres undefined)
740	O=C(NC1CCN(c2cc(-c3ccc(F)cc3)[nH]n2)C1)c1ccc(F)cc1Cl (centres undefined)
920	O=C(Cn1ccc2ccc(N3CCOCC3)nc21)NCc1ccc(F)c(Cl)c1
970	Cc1cccc(-c2nc(N)n(C(=O)C(C)C)n2)c1
728	Cc1nnc(-c2cccnc2N2CCN(C(=O)CC3CCCC3)CC2)o1
905	CCSc1nnc(-c2nn(C)c3c2CN(S(=O)(=O)Cc2ccccc2F)CC3)n1CC
598	COc1ccc(N2CCN(C(=O)c3cn4c(n3)COCC4)CC2)cc1
771	CC(C)(C)CC(C)(C)n1nnnc1N
981	CC1CCN(c2nc(=O)n(CC(=O)Nc3ccc(C(C)C)cc3)c3ccccc23)CC1
655	CN1C(=O)C2CCCCN2c2ccc(C(=O)NCCCN(C)C3CCCCC3)cc21 (centres undefined)
665	COc1ccc(OC)c(CNC(=O)c2cn3ccccc3n2)c1
598	CCN1CCN(C(=O)C2CCN(C3=NS(=O)(=O)C(c4ccc(C)c(C)c4)=C3C)CC2)CC1
731	Cc1ccc(-c2ccc(-n3nc(C)c(S(=O)(=O)N4CCN(C)CC4)c3C)nn2)cc1C
813	CCc1ccc(S(=O)(=O)N2CCC(c3cc(N)on3)CC2)cc1
696	COC(=O)c1cnc2nc(C)ccc2c1Nc1ccc(C)c(F)c1
865	O=C(NC1CC1)C1CCN(c2nc3ccc(-c4ccccc4)nc3s2)CC1
535	COCC(=O)N1CCN(C2CCN(CCC(C)C)C2=O)CC1 (centres undefined)
775	COc1ccc2[nH]cc(CCN3CC(C(=O)Nc4ccc(C)cc4C)CC3=O)c2c1 (centres undefined)
674	CC(C)Cc1noc(C2(F)CCN(S(=O)(=O)c3ccccc3Cl)CC2)n1
